Data as given in patent US11897898B2, “Pyridine macrocycle compounds as ASK1 inhibiting agents” (BIOGEN MA INC., priority 2018, dated 2024).

Test: In vivo brain penetration (rat Kpuu study)
Conditions: brain and plasma (unbound), IV infusion in the carotid artery for four hours, 1 mg/kg, steady state, Kpuu=Cu,b/Cu,p
Protocol: To evaluate the CNS penetration of the compounds described herein, several compounds were selected for in vivo rat Kpuu studies. In these experiments the compounds are administered via an IV infusion (using N,N-dimethylacetamide:ethanol:1,2-propylene glycol:water in a 1:1:3:5 ratio as the vehicle) in the carotid artery for a period of four hours (1 mg/kg, 0.1 mg/mL) to reach steady state. After this time the plasma and brain concentration levels are quantified, and the values are adjusted by the measured protein binding in plasma and brain homogenate to calculate the Kpuu (see Di, L.; Kerns, E. H. Blood-Brain Barrier in Drug Discovery (Wiley)) according to the equation below. Kpuu=Cu,b/Cu,p • Wherein: • Cu,b=Unbound concentration in brain (C×fu,b). (C=concentration at steady state; fu,b=fraction unbound in brain) • And in which: Cu,p=Unbound concentration in plasma (C×fu,p). (C=concentration at steady state; fu,p=fraction unbound in plasma)
Plasma and brain protein binding values were generated via the Rapid Equilibrium Dialysis method. The compound of interest was incubated in K2EDTA plasma and brain homogenate (homogenized 1:7 (w:v) in 1×PBS) purchased from BioIVT (Westbury, N.Y.), opposite a buffered compartment of 100 mM Potassium phosphate/150 mM Sodium chloride, pH 7.4, at 1 μM for 4 hr and 6 hr respectively. At the conclusion of incubation samples were taken from both matrix and buffered compartments, matrix-matched using blank buffer and matrix, extracted with acetonitrile, diluted with water, and analyzed utilizing an Agilent RapidFire 365 high-throughput LC coupled with MS/MS detection via an AB Sciex 5500. Free fractions (fu) were then calculated by comparing internal standard/analyte peak-area ratios of matrix and buffered compartments. Cross-species brain protein binding was considered to be equivalent for the purposes of calculating free fraction (see Di, L., et al., (2011a) Species Independence in Brain Tissue Binding Using Brain Homogenates, Drug Metab Dispos 39:1270-1277).
Total drug concentration in plasma and brain tissue was measured via well-established bioanalytical extraction (protein precipitation) and detection methods (LC-MS/MS). Brain tissues were homogenized 1:4 (w:v) with 1×PBS in MP Biomedicals Lysing Matrix D tubes via an MP Biomedicals FastPrep-24™ homogenizer and were then extracted alongside plasma samples by matrix-matching with blank K2EDTA plasma (purchased from BioIVT), followed by protein crash/extraction with acetonitrile, supernatant dry down under nitrogen, and reconstitution with an acidified aqueous/organic mixture before being measured against a calibration curve of the compound of interest prepared in plasma, matrix-matched with blank brain homogenate (generated with brains purchased from BioIVT), and similarly extracted. Reconstituted extracts were then analyzed via LC-MS/MS (AB Sciex 5500) utilizing a binary HPLC setup (Shimadzu LC-20ADvp) and reverse-phase chromatography gradient (ACE 3 C18-AR). Peak area ratios and a 1/x^2 regression fit were used to generate sample concentration values that, combined with plasma and brain protein binding values, were used to generate free drug concentration values and partitioning coefficient (Kpuu).

Kp uu at 4 h	Compound
≥ 0.1	C[C@H]1CCCOc2ncc(Br)cc2C(=O)Nc2cccc(n2)-c2nncn21 (single isomer, unassigned) [Compound 1]
≥ 0.1	C[C@H]1CCCOc2ncccc2C(=O)Nc2cccc(n2)-c2nncn21 (single isomer, unassigned) [Compound 4]
≥ 0.1	C[C@H]1CCCOc2ncc(C(F)(F)F)cc2C(=O)Nc2cccc(n2)-c2nncn21 (single isomer, unassigned) [Compound 41]
≥ 0.1	C[C@H]1CCCOc2ncc(-c3ccncc3)cc2C(=O)Nc2cccc(n2)-c2nncn21 [Compound 17, (S)-10-Methyl-5^5-(pyridin-4-yl)-1^4H-6-oxa-3-aza-2(2,6),5(3,2)-dipyridina-1(3,4)-triazolacyclodecaphan-4-one]
< 0.1	C[C@H]1CCCOc2ncc(C#N)cc2C(=O)Nc2cccc(n2)-c2nncn21 [Compound 38, (S)-10-Methyl-4-oxo-1^4H-6-oxa-3-aza-2(2,6),5(3,2)-dipyridina-1(3,4)-triazolacyclodecaphane-5^5-carbonitrile]
